Assay results published in patent US20040266623A1, “SYNERGISTIC QUINCLORAC HERBICIDAL COMPOSITIONS” (priority 2003, published 2004).

Columns and labels:
Test in all cases: Greenhouse pot test, postemergent spray, visual control rating converted to percent control
Assay type in all cases: in vivo
[1] = tested on: dandelion
Method in brief: (§1)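 Percent control derives from a visual 1–9 scale where 1 means no control and 9 plant death, scored from 24 hours through 21 days after treatment. Sprays were applied at 43.46 gallons of solution/acre to greenhouse-grown pots.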

[2] = tested on: plantain
Method in brief: as §1

[3] = tested on: white clover
Method in brief: as §1

**Q.** What does the source list for `O=C(O)c1c(Cl)ccc2cc(Cl)cnc12` [Quinclorac, 3,7-dichloro-8-quinolinecarboxylic acid]?
**A.** % Control Dandelion ([1]; Test 1, 7 DAT, 0.18 lbs/A): 33.3%; Control (1-9) Dandelion ([1]; Test 1, 7 DAT, 0.18 lbs/A): 3; % Control Dandelion ([1]; Test 1, 7 DAT, 0.375 lbs/A): 33.3%; Control (1-9) Dandelion ([1]; Test 1, 7 DAT, 0.375 lbs/A): 3; % Control Dandelion ([1]; Test 1, 7 DAT, 0.75 lbs/A): 33.3%; Control (1-9) Dandelion ([1]; Test 1, 7 DAT, 0.75 lbs/A): 3; % Control Dandelion ([1]; Test 1, 14 DAT, 0.18 lbs/A): 88.9%; Control (1-9) Dandelion ([1]; Test 1, 14 DAT, 0.18 lbs/A): 8; % Control Dandelion ([1]; Test 1, 14 DAT, 0.375 lbs/A): 77.8%; Control (1-9) Dandelion ([1]; Test 1, 14 DAT, 0.375 lbs/A): 7; % Control Dandelion ([1]; Test 1, 14 DAT, 0.75 lbs/A): 66.7%; Control (1-9) Dandelion ([1]; Test 1, 14 DAT, 0.75 lbs/A): 6; % Control Dandelion ([1]; Test 1, 24 HAT, 0.18 lbs/A): 22.2%; Control (1-9) Dandelion ([1]; Test 1, 24 HAT, 0.18 lbs/A): 2; % Control Dandelion ([1]; Test 1, 24 HAT, 0.375 lbs/A): 11.1%; Control (1-9) Dandelion ([1]; Test 1, 24 HAT, 0.375 lbs/A): 1; % Control Dandelion ([1]; Test 1, 24 HAT, 0.75 lbs/A): 11.1%; Control (1-9) Dandelion ([1]; Test 1, 24 HAT, 0.75 lbs/A): 1; % Control Dandelion ([1]; Test 1, 48 HAT, 0.18 lbs/A): 33.3%; Control (1-9) Dandelion ([1]; Test 1, 48 HAT, 0.18 lbs/A): 3; % Control Dandelion ([1]; Test 1, 48 HAT, 0.375 lbs/A): 33.3%; Control (1-9) Dandelion ([1]; Test 1, 48 HAT, 0.375 lbs/A): 3; % Control Dandelion ([1]; Test 1, 48 HAT, 0.75 lbs/A): 33.3%; Control (1-9) Dandelion ([1]; Test 1, 48 HAT, 0.75 lbs/A): 3; % Control Dandelion ([1]; Test 2, 7 DAT, 0.18 lbs/A): 88.9%; Control (1-9) Dandelion ([1]; Test 2, 7 DAT, 0.18 lbs/A): 8; % Control Dandelion ([1]; Test 2, 7 DAT, 0.375 lbs/A): 33.3%; Control (1-9) Dandelion ([1]; Test 2, 7 DAT, 0.375 lbs/A): 3; % Control Dandelion ([1]; Test 2, 7 DAT, 0.75 lbs/A): 33.3%; Control (1-9) Dandelion ([1]; Test 2, 7 DAT, 0.75 lbs/A): 3; % Control Dandelion ([1]; Test 2, 14 DAT, 0.18 lbs/A): 88.9%; Control (1-9) Dandelion ([1]; Test 2, 14 DAT, 0.18 lbs/A): 8; % Control Dandelion ([1]; Test 2, 14 DAT, 0.375 lbs/A): 88.9%; Control (1-9) Dandelion ([1]; Test 2, 14 DAT, 0.375 lbs/A): 8; % Control Dandelion ([1]; Test 2, 14 DAT, 0.75 lbs/A): 66.7%; Control (1-9) Dandelion ([1]; Test 2, 14 DAT, 0.75 lbs/A): 6; % Control Dandelion ([1]; Test 2, 24 HAT, 0.18 lbs/A): 22.2%; Control (1-9) Dandelion ([1]; Test 2, 24 HAT, 0.18 lbs/A): 2; % Control Dandelion ([1]; Test 2, 24 HAT, 0.375 lbs/A): 22.2%; Control (1-9) Dandelion ([1]; Test 2, 24 HAT, 0.375 lbs/A): 2; % Control Dandelion ([1]; Test 2, 24 HAT, 0.75 lbs/A): 22.2%; Control (1-9) Dandelion ([1]; Test 2, 24 HAT, 0.75 lbs/A): 2; % Control Dandelion ([1]; Test 2, 72 HAT, 0.18 lbs/A): 55.6%; Control (1-9) Dandelion ([1]; Test 2, 72 HAT, 0.18 lbs/A): 5; % Control Dandelion ([1]; Test 2, 72 HAT, 0.375 lbs/A): 33.3%; Control (1-9) Dandelion ([1]; Test 2, 72 HAT, 0.375 lbs/A): 3; % Control Dandelion ([1]; Test 2, 72 HAT, 0.75 lbs/A): 33.3%; Control (1-9) Dandelion ([1]; Test 2, 72 HAT, 0.75 lbs/A): 3; % Control Dandelion ([1]; Test 4, 7 DAT, 0.18 lbs/A): 22.2%; Control (1-9) Dandelion ([1]; Test 4, 7 DAT, 0.18 lbs/A): 2; % Control Dandelion ([1]; Test 4, 7 DAT, 0.375 lbs/A): 22.2%; Control (1-9) Dandelion ([1]; Test 4, 7 DAT, 0.375 lbs/A): 2; % Control Dandelion ([1]; Test 4, 7 DAT, 0.75 lbs/A): 22.2%; Control (1-9) Dandelion ([1]; Test 4, 7 DAT, 0.75 lbs/A): 2; % Control Dandelion ([1]; Test 4, 14 DAT, 0.18 lbs/A): 22.2%; Control (1-9) Dandelion ([1]; Test 4, 14 DAT, 0.18 lbs/A): 2; % Control Dandelion ([1]; Test 4, 14 DAT, 0.375 lbs/A): 22.2%; Control (1-9) Dandelion ([1]; Test 4, 14 DAT, 0.375 lbs/A): 2; % Control Dandelion ([1]; Test 4, 14 DAT, 0.75 lbs/A): 22.2%; Control (1-9) Dandelion ([1]; Test 4, 14 DAT, 0.75 lbs/A): 2; % Control Plantain ([2]; Test 4, 7 DAT, 0.18 lbs/A): 33.3%; Control (1-9) Plantain ([2]; Test 4, 7 DAT, 0.18 lbs/A): 3; % Control Plantain ([2]; Test 4, 7 DAT, 0.375 lbs/A): 22.2%; Control (1-9) Plantain ([2]; Test 4, 7 DAT, 0.375 lbs/A): 2; % Control Plantain ([2]; Test 4, 7 DAT, 0.75 lbs/A): 33.3%; Control (1-9) Plantain ([2]; Test 4, 7 DAT, 0.75 lbs/A): 3; % Control Plantain ([2]; Test 4, 14 DAT, 0.18 lbs/A): 33.3%; Control (1-9) Plantain ([2]; Test 4, 14 DAT, 0.18 lbs/A): 3; % Control Plantain ([2]; Test 4, 14 DAT, 0.375 lbs/A): 22.2%; Control (1-9) Plantain ([2]; Test 4, 14 DAT, 0.375 lbs/A): 2; % Control Plantain ([2]; Test 4, 14 DAT, 0.75 lbs/A): 33.3%; Control (1-9) Plantain ([2]; Test 4, 14 DAT, 0.75 lbs/A): 3; % Control Clover ([3]; Test 1, 7 DAT, 0.18 lbs/A): 33.3%; Control (1-9) Clover ([3]; Test 1, 7 DAT, 0.18 lbs/A): 3; % Control Clover ([3]; Test 1, 7 DAT, 0.375 lbs/A): 33.3%; Control (1-9) Clover ([3]; Test 1, 7 DAT, 0.375 lbs/A): 3; % Control Clover ([3]; Test 1, 7 DAT, 0.75 lbs/A): 33.3%; Control (1-9) Clover ([3]; Test 1, 7 DAT, 0.75 lbs/A): 3; % Control Clover ([3]; Test 1, 14 DAT, 0.18 lbs/A): 100.0%; Control (1-9) Clover ([3]; Test 1, 14 DAT, 0.18 lbs/A): 9; % Control Clover ([3]; Test 1, 14 DAT, 0.375 lbs/A): 100.0%; Control (1-9) Clover ([3]; Test 1, 14 DAT, 0.375 lbs/A): 9; % Control Clover ([3]; Test 1, 14 DAT, 0.75 lbs/A): 88.9%; Control (1-9) Clover ([3]; Test 1, 14 DAT, 0.75 lbs/A): 8; % Control Clover ([3]; Test 1, 24 HAT, 0.18 lbs/A): 11.1%; Control (1-9) Clover ([3]; Test 1, 24 HAT, 0.18 lbs/A): 1; % Control Clover ([3]; Test 1, 24 HAT, 0.375 lbs/A): 11.1%; Control (1-9) Clover ([3]; Test 1, 24 HAT, 0.375 lbs/A): 1; % Control Clover ([3]; Test 1, 24 HAT, 0.75 lbs/A): 11.1%; Control (1-9) Clover ([3]; Test 1, 24 HAT, 0.75 lbs/A): 1; % Control Clover ([3]; Test 1, 48 HAT, 0.18 lbs/A): 22.2%; Control (1-9) Clover ([3]; Test 1, 48 HAT, 0.18 lbs/A): 2; % Control Clover ([3]; Test 1, 48 HAT, 0.375 lbs/A): 33.3%; Control (1-9) Clover ([3]; Test 1, 48 HAT, 0.375 lbs/A): 3; % Control Clover ([3]; Test 1, 48 HAT, 0.75 lbs/A): 33.3%; Control (1-9) Clover ([3]; Test 1, 48 HAT, 0.75 lbs/A): 3; % Control Clover ([3]; Test 2, 7 DAT, 0.18 lbs/A): 66.7%; Control (1-9) Clover ([3]; Test 2, 7 DAT, 0.18 lbs/A): 6; % Control Clover ([3]; Test 2, 7 DAT, 0.375 lbs/A): 77.8%; Control (1-9) Clover ([3]; Test 2, 7 DAT, 0.375 lbs/A): 7; % Control Clover ([3]; Test 2, 7 DAT, 0.75 lbs/A): 77.8%; Control (1-9) Clover ([3]; Test 2, 7 DAT, 0.75 lbs/A): 7; % Control Clover ([3]; Test 2, 14 DAT, 0.18 lbs/A): 100.0%; Control (1-9) Clover ([3]; Test 2, 14 DAT, 0.18 lbs/A): 9; % Control Clover ([3]; Test 2, 14 DAT, 0.375 lbs/A): 100.0%; Control (1-9) Clover ([3]; Test 2, 14 DAT, 0.375 lbs/A): 9; % Control Clover ([3]; Test 2, 14 DAT, 0.75 lbs/A): 100.0%; Control (1-9) Clover ([3]; Test 2, 14 DAT, 0.75 lbs/A): 9; % Control Clover ([3]; Test 2, 24 HAT, 0.18 lbs/A): 22.2%; Control (1-9) Clover ([3]; Test 2, 24 HAT, 0.18 lbs/A): 2; % Control Clover ([3]; Test 2, 24 HAT, 0.375 lbs/A): 22.2%; Control (1-9) Clover ([3]; Test 2, 24 HAT, 0.375 lbs/A): 2; % Control Clover ([3]; Test 2, 24 HAT, 0.75 lbs/A): 22.2%; Control (1-9) Clover ([3]; Test 2, 24 HAT, 0.75 lbs/A): 2; % Control Clover ([3]; Test 2, 72 HAT, 0.18 lbs/A): 33.3%; Control (1-9) Clover ([3]; Test 2, 72 HAT, 0.18 lbs/A): 3; % Control Clover ([3]; Test 2, 72 HAT, 0.375 lbs/A): 33.3%; Control (1-9) Clover ([3]; Test 2, 72 HAT, 0.375 lbs/A): 3; % Control Clover ([3]; Test 2, 72 HAT, 0.75 lbs/A): 33.3%; Control (1-9) Clover ([3]; Test 2, 72 HAT, 0.75 lbs/A): 3; % Control Clover ([3]; Test 4, 7 DAT, 0.18 lbs/A): 33.3%; Control (1-9) Clover ([3]; Test 4, 7 DAT, 0.18 lbs/A): 3; % Control Clover ([3]; Test 4, 7 DAT, 0.375 lbs/A): 44.4%; Control (1-9) Clover ([3]; Test 4, 7 DAT, 0.375 lbs/A): 4; % Control Clover ([3]; Test 4, 7 DAT, 0.75 lbs/A): 33.3%; Control (1-9) Clover ([3]; Test 4, 7 DAT, 0.75 lbs/A): 3; % Control Clover ([3]; Test 4, 14 DAT, 0.18 lbs/A): 33.3%; Control (1-9) Clover ([3]; Test 4, 14 DAT, 0.18 lbs/A): 3; % Control Clover ([3]; Test 4, 14 DAT, 0.375 lbs/A): 55.6%; Control (1-9) Clover ([3]; Test 4, 14 DAT, 0.375 lbs/A): 5; % Control Clover ([3]; Test 4, 14 DAT, 0.75 lbs/A): 44.4%; Control (1-9) Clover ([3]; Test 4, 14 DAT, 0.75 lbs/A): 4
